The conditions of data set [1]: cited from earlier work.
In data set [2] the test system is human hepatocellular carcinoma cell line Hep3B. Description: Combinatorial evaluation in cell culture (Hep3B proliferation, Cell Counting Kit-8, MacSynergy II). Conditions: combination with sorafenib, Hep3B cells, 6 days incubation; for anti-proliferative interaction with sorafenib (MacSynergy II classification): 95% confidence; for log volume at 95% confidence (synergy volume calculated by MacSynergy II): log volumes >9 indicate strong synergy. It counts as cell-based. The procedure:
General Procedure for Combinatorial Evaluation in Cell Culture
For analysis of the human hepatocellular carcinoma cell line Hep3B, from DSMZ (ACC 93), was used. Hep3B cells were cultured as epithelial-like cells in monolayers in 90% MEM (with Earle's salts)+10% h.i. FBS+2 mM L-glutamine+50 u/ml Penicillin/0.05 mg/ml Streptomycin as culture medium. Confluent cultures were split 1:4 to 1:10 every 3-5 days using trypsin/EDTA, and re-seeded at 0.5−1×10^6 cells/80 cm^2.
Cell culture flask is washed 2 times with 5 ml PBS and PBS discarded. Add 1.5 ml of trypsin and put the flask into the incubator for 3-4 minutes. Shake the flask and add 10 ml of DMEM, 10% FCS, 50 μ/ml Penicillin/0.05 mg/ml Streptomycin without phenol red. The cells were counted using the Scepter cell counter, Hep3B cells were diluted to 20×10^3 cells/ml in complete cell medium without phenol red. 100 μl cell suspension/well was seeded in 96-well cell assay plates. Two replicate plates for each combination.
Test compounds were tested at nine concentrations, either 5 μM to 0.00076 μM or 10 μM to 0.0015 μM, in a 1:3 dilution series. Sorafenib was tested at seven concentrations, 20 μM to […], in a 1:2 dilution series. The four dilution plates were prepared with the Echo instrument.
The compound dilutions were 2 times the desired final concentrations. The volume in the dilution plates in each well are 125 μl of medium with compounds.
100 μl from the dilution plate with compounds in the different concentrations were transferred to the corresponding well of the cell assay plate with 100 μl, (200 μl/well in total volume). Incubate the plates for 6 days, at 37° C., 5% CO2.
10 μl of CCK Kit-8 was added to each well using a multi-channel pipette (submerging the tips below the surface in each well). Plates were incubated for 4 hours at 37° C., 5% CO2.
The plate was read in the spectrophotometer at a wavelength of 450 nm, with a reference filter of 650 nm. Average absorbance was >1 to <3 for the vehicle treated cell controls.
Raw data from the two plates of each combination were entered into the Mac Synergy II shareware where the combined effect was calculated and plotted in a 3D dose-response surface graph. Theoretical additive interactions are calculated from the dose response curves for each drug individually. Calculated additive surface is subtracted from experimentally determined dose-response surfaces to reveal regions of non-additive activity. The final results are given as synergy or antagonism volumes (μM^2%) according to guide lines given in the manual for MacSynergy II:
Synergy volumes: • 1. Values of synergy or antagonism under 25 μM^2% (log volumes <2) at 95% confidence should be regarded as insignificant and are probably not important. • 2. Values between 25 μM^2% and 50 μM^2% (log volumes >2 and <5) should be considered a minor but significant amount of synergy. • 3. Values between 50 μM^2% and 100 μM^2% (log volumes >5 and <9) indicate moderate synergy or antagonism. This interaction may be important in vivo. • 4. Values over 100 μM^2% (log volumes >9) indicate strong synergy and are probably important in vivo.

Where two headings read alike, the source gives them in different places.

Regarding `CNC(=O)c1cc(Oc2ccc(NC(=O)Nc3ccc(Cl)c(C(F)(F)F)c3)c(F)c2)ccn1` [Regorafenib monohydrate, 4-[4-({[4-chloro-3-(trifluoromethyl)phenyl]carbamoyl}amino)-3-fluorophenoxy]-N-methylpyridine-2-carboxamide monohydrate], the solubility entry is given as “sparingly soluble” in data set [1] (acetone); “slightly soluble” in data set [1] (acetonitrile); “practically insoluble” in data set [1] (aqueous media); “slightly soluble” in data set [1] (ethanol); “slightly soluble” in data set [1] (ethyl acetate); “slightly soluble” in data set [1] (methanol).

Turning to `CNC(=O)c1cc(Oc2ccc(NC(=O)Nc3ccc(Cl)c(C(F)(F)F)c3)cc2)ccn1.Cc1ccc(S(=O)(=O)O)cc1` [Sorafenib tosylate, 4-(4-{3-[4-Chloro-3(trifluoromethyl)phenyl]ureido}phenoxy) N-methylpyridine-2-carboxamide 4-methylbenzenesulfonate], the values for the solubility entry in data set [1] (PEG 400), in data set [1] (aqueous media) and in data set [1] (ethanol) were “soluble”, “practically insoluble” and “slightly soluble”, respectively.

On to `CCCC(CCC)COC(=O)[C@H](C)NP(=O)(OC[C@H]1OC[C@@H](n2ccc(N)nc2=O)O1)Oc1ccccc1` (single isomer, unassigned) [Example 3], for which, in data set [2], the “anti-proliferative interaction with sorafenib (MacSynergy II classification)” value (“anti-proliferative interaction” for short) is given as “strong anti-proliferative synergy” and the “log volume at 95% confidence (synergy volume calculated by MacSynergy II)” value is 32.

Turning to `CC[C@@H](C)OC(=O)[C@@H](NP(=O)(OC[C@H]1OC[C@@H](n2ccc(N)nc2=O)O1)Oc1ccccc1)C(C)C` (single isomer, unassigned) [Example 5], in data set [2], the “anti-proliferative interaction” value is recorded as “strong anti-proliferative synergy” and the “log volume at 95% confidence (synergy volume calculated by MacSynergy II)” value is reported as 46.

In the case of `CC[C@@H](C)OC(=O)[C@H](C)NP(=O)(OC[C@H]1OC[C@@H](n2cc(F)c(N)nc2=O)O1)Oc1ccccc1` (single isomer, unassigned) [Example 2], in data set [2], the “anti-proliferative interaction” value is “strong anti-proliferative synergy” and the “log volume at 95% confidence (synergy volume calculated by MacSynergy II)” value is recorded as 11.

With `CCC[C@H](C)OC(=O)[C@H](C)NP(=O)(OC[C@H]1OC[C@@H](n2ccc(N)nc2=O)O1)Oc1ccc(Br)cc1` (single isomer, unassigned) [Example 4], in data set [2], the “anti-proliferative interaction” value is reported as “strong anti-proliferative synergy” and the “log volume at 95% confidence (synergy volume calculated by MacSynergy II)” value was 40.

Turning to `CCC[C@H](C)OC(=O)[C@H](C)NP(=O)(OC[C@H]1OC[C@@H](n2ccc(N)nc2=O)O1)Oc1ccccc1` (single isomer, unassigned) [Example 1], in data set [2], the “anti-proliferative interaction” value is “strong anti-proliferative synergy” and the “log volume at 95% confidence (synergy volume calculated by MacSynergy II)” value was 76.

Values taken from patent US10960017B2, “Sorafenib or regorafenib troxacitabine phosphoramidate prodrug combination therapy for liver cancer” (priority 2016, dated 2021).
